Source: patent US6306860A, “2,5-pyridinedicarboxylic acid derivatives” (Dong Wha Pharm. Inc. Co., Ltd., priority 1998, dated 2001)
Structures can show the parent of a compound that is named as a salt.

How the values were obtained:
[1] = biological target: T1, HBV polymerase (Hepatitis B virus genotype D subtype ayw, UniProt P03156); assay: Inhibitory activities against HBV polymerase (reverse transcriptase activity) in vitro; format: biochemical; conditions: read-out: Inhibitory activity of HBV-RT (%); for inhibition at 0.01 µg/mL: 0.01 μg/ml; for inhibition at 0.1 µg/mL: 0.1 μg/ml; for inhibition at 1 µg/mL: 1 μg/ml
T1 construct: made in house; host or cells: E. coli
Excerpt: Experiment 1:Inhibitory Activities Against HBV Polymerase in vitro
Recently, the inventors of the present invention have produced a recombinant HBV polymerase that is expressed from E.coli transformant, measured its enzyme activity and filed patent applications threrof [Korean Pat. Appl. Nos. 94-3918 and 96-33998].
The inventors have also established a method of measuring the reverse transcriptase activity of HBV polymerase in vitro. The fundamental principle is the same as the ELISA method, and after reacting the substrate with biotin- and DIG-modified nucleotide, a method of recognizing the polymerized substrate as anti-DIG antibody with peroxidase was used.
20 μl of HBV polymerase, 20 μl of reaction mixture and 20 μl of test compound was mixed and reacted at 14° C.~30° C. for 18~24 hours. Then, the inhibitory effect of the test compound against reverse transcriptase activity in the HBV polymerase was examined, compared with the results of control tests without the test compound.

[2] = biological target: T2, HIV reverse transcriptase (Human immunodeficiency virus type 1 group M subtype B, UniProt P04585); assay: In vitro inhibition test against HIV reverse transcriptase; format: biochemical; conditions: read-out: Inhibitory activity of HIV-RT (%); for inhibition at 0.1 µg/mL: 0.1 μg/ml; for inhibition at 1 µg/mL: 1 μg/ml
T2 construct: purchased Boehringer Mannheim
Experimental: Experiment 2: The in vitro Inhibition Test Against HIV Reverse Transcriptase
The inhibitory activity in vitro was measured using a non-radioactive reverse transcriptase assay Kit (Boehringer Mannheim).
At first, 20 μl(40 ng) of HIV-RT was added to the wells, coated with streptavidin and with the addition of 20 μl reaction mixture containing template/primer hybrid poly(A)/oligo(dT)15 and DIG-(digoxigenin)-dUTP, biotin-dUTP and TTP, 20 μl of test compound was added and reacted at 37° C. for 1 hour. The control without test compound was used for the comparison of related activity. Since DNA containing nucleotide labeled with digoxigenin and biotine was prepared by the action of HIV-RT, it was combined with streptavidin coated at the bottom of the wells. After the reaction was completed, remaining impurities were removed by washing each well with 250 μl buffer solution (pH 7.0) for 30 seconds 5 times and with the addition of 200 μl anti-DIG-POD antibody, the mixture was reacted at 37° C. for 1 hour. For the removal of remaining impurities again, the reacting solution was washed with a buffer solution and with the addition of 200 μl ABTS™ each, a substrate of POD(peroxidase), the solution was reacted at room temperature for 30 minutes. The absorbance was read by ELISA reader at 405 nm for the assay of reverse transcriptase activity and its inhibition activity.

T1 sequence (P03156 whole entry): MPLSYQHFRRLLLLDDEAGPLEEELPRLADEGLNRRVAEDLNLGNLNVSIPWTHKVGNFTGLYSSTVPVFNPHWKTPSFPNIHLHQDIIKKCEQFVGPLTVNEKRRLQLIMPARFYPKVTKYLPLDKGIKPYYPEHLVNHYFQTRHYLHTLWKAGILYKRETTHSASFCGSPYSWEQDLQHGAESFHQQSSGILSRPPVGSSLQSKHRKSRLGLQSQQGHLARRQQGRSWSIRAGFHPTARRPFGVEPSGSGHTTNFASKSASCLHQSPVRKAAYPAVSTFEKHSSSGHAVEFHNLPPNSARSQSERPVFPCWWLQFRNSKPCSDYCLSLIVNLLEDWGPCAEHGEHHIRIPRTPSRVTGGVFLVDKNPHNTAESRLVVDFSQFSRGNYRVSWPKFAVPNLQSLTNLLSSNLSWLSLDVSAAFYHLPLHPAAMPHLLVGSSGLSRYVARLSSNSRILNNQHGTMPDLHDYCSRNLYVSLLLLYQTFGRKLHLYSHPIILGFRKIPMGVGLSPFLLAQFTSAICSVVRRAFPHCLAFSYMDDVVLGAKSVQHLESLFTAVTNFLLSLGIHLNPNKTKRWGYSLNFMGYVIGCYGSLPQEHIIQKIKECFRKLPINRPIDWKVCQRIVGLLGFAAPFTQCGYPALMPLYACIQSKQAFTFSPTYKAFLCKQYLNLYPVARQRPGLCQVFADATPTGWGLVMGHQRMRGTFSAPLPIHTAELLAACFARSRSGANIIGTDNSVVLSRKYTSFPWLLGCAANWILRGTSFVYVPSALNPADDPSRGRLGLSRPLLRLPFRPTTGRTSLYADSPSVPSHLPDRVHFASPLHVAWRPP

Structure (SMILES): COC(CN(C)C(=O)c1ccc(C(=O)N2CCN(c3ncccc3NC(C)C)CC2)nc1)OC [Exam. 50, 5-[N-(2,2-dimethoxyethyl)-N-methylcarbamoyl]-2-[1-[3-(isopropylamino)-2-pyridyl]piperazin-4-yl-carbonyl]pyridine.HCl]
- inhibition at 0.01 µg/mL [1]: 15%
- inhibition at 0.1 µg/mL [1]: 51%
- inhibition at 1 µg/mL [1]: 60%
- inhibition at 0.1 µg/mL [2]: 40%
- inhibition at 1 µg/mL [2]: 55%

Structure (SMILES): CC(C)Nc1cccnc1N1CCN(C(=O)c2ccc(C(=O)NC(CO)CO)cn2)CC1 [Exam. 13, 5-[N-[Bis(hydroxymethyl)methyl]carbamoyl]-2-[1-[3-(isopropylamino)-2-pyridyl]piperazin-4-yl-carbonyl]pyridine]
- inhibition at 0.01 µg/mL [1]: 51%
- inhibition at 0.1 µg/mL [1]: 56%
- inhibition at 1 µg/mL [1]: 72%
- inhibition at 0.1 µg/mL [2]: 61%
- inhibition at 1 µg/mL [2]: 80%

Structure (SMILES): CC(C)CNc1cccnc1N1CCN(C(=O)c2ccc(C(=O)NC3CC3)cn2)CC1 [Exam. 36]
- inhibition at 0.01 µg/mL [1]: 60%
- inhibition at 0.1 µg/mL [1]: 71%
- inhibition at 1 µg/mL [1]: 87%
- inhibition at 0.1 µg/mL [2]: 60%
- inhibition at 1 µg/mL [2]: 73%

Structure (SMILES): COCCCNC(=O)c1ccc(C(=O)N2CCN(CCO)CC2)nc1 [Exam. 99, 6-[1-(2-hydroxyethyl)piperazin-4-yl-carbonyl]-N-(3-methoxypropyl)nicotinamide]
- inhibition at 0.01 µg/mL [1]: 15%
- inhibition at 0.1 µg/mL [1]: 60%
- inhibition at 1 µg/mL [1]: 68%
- inhibition at 0.1 µg/mL [2]: 65%
- inhibition at 1 µg/mL [2]: 75%

Structure (SMILES): O=C(NCc1ccco1)c1ccc(C(=O)N2CCN(CCO)CC2)nc1 [Exam. 103, N-(2-Furylmethyl)-6-[1-(2-hydroxyethyl)piperazin-4-yl-carbonyl]nicotinamide.HCl]
- inhibition at 0.01 µg/mL [1]: 20%
- inhibition at 0.1 µg/mL [1]: 54%
- inhibition at 1 µg/mL [1]: 72%
- inhibition at 0.1 µg/mL [2]: 65%
- inhibition at 1 µg/mL [2]: 80%

Structure (SMILES): O=C(NCCO)c1ccc(C(=O)N2CCN(CCO)CC2)nc1 [Exam. 93, N-(2-hydroxyethyl)-6-[1-(2-hydroxyethyl)piperazin-4-yl-carbonyl]nicotinamide]
- inhibition at 0.01 µg/mL [1]: 30%
- inhibition at 0.1 µg/mL [1]: 59%
- inhibition at 1 µg/mL [1]: 73%
- inhibition at 0.1 µg/mL [2]: 25%
- inhibition at 1 µg/mL [2]: 50%

Structure (SMILES): CC(C)NC(=O)c1ccc(C(=O)N2CCN(c3ncccc3N)CC2)nc1 [Exam. 27, 2-[1-(3-amino-2-pyridyl)piperazin-4-yl-carbonyl]-5-(N-isopropylcarbamoyl)pyridine]
- inhibition at 0.01 µg/mL [1]: 43%
- inhibition at 0.1 µg/mL [1]: 62%
- inhibition at 1 µg/mL [1]: 79%
- inhibition at 0.1 µg/mL [2]: 54%
- inhibition at 1 µg/mL [2]: 70%

Structure (SMILES): CC(C)Nc1cccnc1N1CCN(C(=O)c2ccc(C(=O)NC3CCOC3=O)cn2)CC1 (centres unmarked) [Exam. 55, 2-[1-[3-(Isopropylamino)-2-pyridyl]piperazin-4-yl-carbonyl]-5-[N-(tetrahydro-2-fuanon-3-yl)carbamoyl]pyridine]
- inhibition at 0.01 µg/mL [1]: 55%
- inhibition at 0.1 µg/mL [1]: 69%
- inhibition at 1 µg/mL [1]: 79%
- inhibition at 0.1 µg/mL [2]: 31%
- inhibition at 1 µg/mL [2]: 62%

Structure (SMILES): CC(C)Nc1cccnc1N1CCN(C(=O)c2ccc(C(=O)Nc3cnccn3)cn2)CC1 [Exam. 72, 6-[1-[3-(isopropylamino)-2-pyridyl]piperazin-4-yl-carbonyl]-N-(pyrazine-2-yl)nicotinamide]
- inhibition at 0.01 µg/mL [1]: 16%
- inhibition at 0.1 µg/mL [1]: 53%
- inhibition at 1 µg/mL [1]: 64%
- inhibition at 0.1 µg/mL [2]: 66%
- inhibition at 1 µg/mL [2]: 83%

Structure (SMILES): CC(C)Nc1cccnc1N1CCN(C(=O)c2ccc(C(=O)NC3CCCC3)cn2)CC1 [Exam. 37, 5-(N-cyclopentylcarbamoyl)-2-[1-[3-(isopropylamino)-2-pyridyl]piperazin-4-yl-carbonyl]pyridine]
- inhibition at 0.01 µg/mL [1]: 39%
- inhibition at 0.1 µg/mL [1]: 65%
- inhibition at 1 µg/mL [1]: 75%
- inhibition at 0.1 µg/mL [2]: 25%
- inhibition at 1 µg/mL [2]: 51%

Structure (SMILES): CC(C)Nc1cccnc1N1CCN(C(=O)c2ccc(C(=O)NCCN(C)C)cn2)CC1 [Exam. 62, 5-[N-[2-(dimethylamino)ethyl]carbamoyl]-2-[1-[3-(isopropylamino)-2-pyridyl]piperazin-4-yl-carbonyl]pyridine.HCl]
- inhibition at 0.01 µg/mL [1]: 47%
- inhibition at 0.1 µg/mL [1]: 58%
- inhibition at 1 µg/mL [1]: 69%
- inhibition at 0.1 µg/mL [2]: 63%
- inhibition at 1 µg/mL [2]: 79%

Structure (SMILES): CCNc1cccnc1N1CCN(C(=O)c2ccc(C(=O)NCc3ccccn3)cn2)CC1 [Exam. 74, 6-[1-[3-(ethylamino)-2-pyridyl]piperazin-4-yl-carbonyl]-N-(2-pyridylmethyl)nicotinamide]
- inhibition at 0.01 µg/mL [1]: 19%
- inhibition at 0.1 µg/mL [1]: 56%
- inhibition at 1 µg/mL [1]: 70%
- inhibition at 0.1 µg/mL [2]: 61%
- inhibition at 1 µg/mL [2]: 80%

Structure (SMILES): CCNC(=O)c1ccc(C(=O)N2CCN(CCO)CC2)nc1 [Exam. 89, N-ethyl-6-[1-(2-hydroxyethyl)piperazin-4-yl-carbonyl]nicotinamide.HCl]
- inhibition at 0.01 µg/mL [1]: 35%
- inhibition at 0.1 µg/mL [1]: 50%
- inhibition at 1 µg/mL [1]: 68%
- inhibition at 0.1 µg/mL [2]: 35%
- inhibition at 1 µg/mL [2]: 62%

Structure (SMILES): Nc1cccnc1N1CCN(C(=O)c2ccc(C(=O)NC3CCOC3=O)cn2)CC1 (centres unmarked) [Exam. 56, 2-[1-(3-amino-2-pyridyl)piperazin-4-yl-carbonyl]-5-[N-(tetrahydro-2-furanon-3-yl)carbamoyl]pyridine]
- inhibition at 0.01 µg/mL [1]: 65%
- inhibition at 0.1 µg/mL [1]: 70%
- inhibition at 1 µg/mL [1]: 82%
- inhibition at 0.1 µg/mL [2]: 45%
- inhibition at 1 µg/mL [2]: 74%

Structure (SMILES): CCNc1cccnc1N1CCN(C(=O)c2ccc(C(=O)NC(C)C)cn2)CC1 [Exam. 25, 2-[1-[3-(ethylamino)-2-pyridyl]piperazin-4-yl-carbonyl]-5-(N-isopropylcarbamoyl)pyridine]
- inhibition at 0.01 µg/mL [1]: 54%
- inhibition at 0.1 µg/mL [1]: 67%
- inhibition at 1 µg/mL [1]: 85%
- inhibition at 0.1 µg/mL [2]: 52%
- inhibition at 1 µg/mL [2]: 75%

Structure (SMILES): CC(C)NC(=O)c1ccc(C(=O)N2CCN(CCO)CC2)nc1 [Exam. 87, 6-[1-(2-hydroxyethyl)piperazin-4-yl-carbonyl]-N-isopropylnicotinamide.HCl]
- inhibition at 0.01 µg/mL [1]: 52%
- inhibition at 0.1 µg/mL [1]: 58%
- inhibition at 1 µg/mL [1]: 75%
- inhibition at 0.1 µg/mL [2]: 60%
- inhibition at 1 µg/mL [2]: 81%

Structure (SMILES): COCCNC(=O)c1ccc(C(=O)N2CCN(CCO)CC2)nc1 [Exam. 98, 6-[1-(2-hydroxyethyl)piperazin-4-yl-carbonyl]-N-(2-methoxyethyl)nicotinamide.HCl]
- inhibition at 0.01 µg/mL [1]: 57%
- inhibition at 0.1 µg/mL [1]: 70%
- inhibition at 1 µg/mL [1]: 85%
- inhibition at 0.1 µg/mL [2]: 61%
- inhibition at 1 µg/mL [2]: 76%

Structure (SMILES): CC(C)Nc1cccnc1N1CCN(C(=O)c2ccc(C(=O)N(CCO)CCO)cn2)CC1 [Exam. 16, 5-[N,N-bis(2-hydroxyethyl)carbamoyl]-2-[1-[3-(isopropylamino)-2-pyridyl]piperazin-4-yl-carbonyl]pyridine]
- inhibition at 0.01 µg/mL [1]: 51%
- inhibition at 0.1 µg/mL [1]: 60%
- inhibition at 1 µg/mL [1]: 70%
- inhibition at 0.1 µg/mL [2]: 47%
- inhibition at 1 µg/mL [2]: 68%

Structure (SMILES): COC(CNC(=O)c1ccc(C(=O)N2CCN(c3ncccc3NC(C)C)CC2)nc1)OC [Exam. 51, 5-[N-(2,2-dimethoxyethyl)carbamoyl]-2-[1-[3-(isopropylamino)-2-pyridyl]piperazin-4-yl-carbonyl]pyridine]
- inhibition at 0.01 µg/mL [1]: 57%
- inhibition at 0.1 µg/mL [1]: 65%
- inhibition at 1 µg/mL [1]: 87%
- inhibition at 0.1 µg/mL [2]: 30%
- inhibition at 1 µg/mL [2]: 51%
